Laboratory results reported in US6586461B1, “Prenyl transferase inhibitors” (Wayne State University, priority 1998, dated 2003).
Entries after “also recorded” stand apart in the source; their conditions may differ.

Columns and labels:
[1] = test system: HPAC (human pancreatic adenocarcinoma cells); assay: Proliferation of HPAC cells, Trypan Blue exclusion; format: cell-based; conditions: 48 hours
Protocol: The malignant human cell line HPAC (human pancreatic adenocarcinoma cells) was used in this study. The cells were seeded at a concentration of 2×10^5/ml in 24 well culture plate (Costar, Cambridge, Mass). […] Varying amounts of the stock solutions were then used to treat the HPAC cells. The final concentration of the farnesol analogs in the culture plate wells ranged from 0 nM (ethanol-treated control) to 500 nM. The plate was then incubated at 37° C. under a 5% CO2-humidified atmosphere for 48 hours. The total viable cells from each well were determined by Trypan Blue (0.4%) exclusion (Gibco, N.Y.) followed by cell counting.

[2] = test system: NIH 3T3 fibroblasts transfected with a transforming form of c-raf [Raf]; assay: Soft agar anchorage-independent growth, Raf cells; format: cell-based; conditions: 2 weeks, mean of two tests
Protocol: (§1) Presumably, the non-polar alcohols pass through the cell membrane and are then diphosphorylated by an as yet uncharacterized kinase to FPP or GGPP.
(§2) The 3-substituted analogs were evaluated as inhibitors of the growth of ras-transformed cells by comparing their relative degree of activity against an isogenic panel of transformed cell lines, comprised of NIH 3T3 fibroblasts transfected with either H-Ras(61 L) [H-Ras-F], H-Ras(61 L)CVLL [H-Ras-GG], or a transforming form of c-raf [Raf]. The H-Ras-F, H-Ras-GG, and raf transformed NIH3T3 cell lines have been previously described in Cox, et al., Molecular and Cellular Biology, Vol. 12, No. 6, pages 2606-2615 (1992). The cells were grown prior to plating in Dulbecco's modified Eagle medium supplemented with 10% calf serum and 1% antibiotic/antimycotic at 37° C. and 10% CO2. Experiments were carried out in 6-well dishes in a two layer agar system (0.6% bottom layer and 0.3% top layer). Cells were incorporated into the top layer along with varying concentrations of the compound prepared in ethanol. Compound addition occurred only at the time the cells were seeded. Subsequent incubation was at 37° C. with 10% CO2 for 2 weeks. Colonies were stained with 0.5 ml/well of 1 mg/ml p-iodonitrotetrazolium violet (Sigma) for 24 hours prior to quantitation by image analysis.

[3] = test system: H-Ras-GG in H-Ras-GG cells; assay: Subcellular fractionation / Western blot of Ras in lovastatin-treated H-Ras-GG cells; format: cell-based; conditions: summary statement
Protocol: (§3) H-Ras-F (A) or H-Ras-GG (B) cells were treated with 25 μM lovastatin for 24 h after which the indicated FPP or GGPP analogs (resuspended in media) were added directly to the cell media. Following an additional 24 h incubation period, the cells were harvested, lysed and the membranes (M) separated from the cytosol (C). After solubilization of the membrane fraction, Ras protein was immunoprecipitated from both the membrane and cytosolic fractions by the addition of the Y13-259 antibody (OP04 from Oncogene Science). The presence of Ras protein in each fraction was analyzed by Western transfer techniques. Incubation with the primary antibody (pan-ras Ab-2 from Oncogene Science) and an anti-mouse HRP conjugate secondary antibody (Amersham) was employed for detection of the ras protein. Blots were developed using Enhanced Chemiluminescence techniques (Amersham). The technique is described in detail by Scholten, et al., Bioorg. Med. Chem., Vol. 4, pages 1537-1543 (1992).
The selectivity and mechanism of the observed cell growth inhibition was further probed by studying the effects of the 3-vinyl and 3-allyl GGPP analogs on the subcellular distribution of the geranylgeranylated protein variant in H-Ras-GG cells in a manner similar to that described for 3-vFPP and 3-alFPP. The Western blot is shown on FIG. 8. With H-Ras-GG cells, as with H-Ras-F cells, blockage of the mevalonate pathway results in a shift in the subcellular location of the Ras protein from the membrane to the cytosol.

[4] = test system: NIH 3T3 fibroblasts transfected with H-Ras(61 L)CVLL [H-Ras-GG]; assay: Soft agar anchorage-independent growth, H-Ras-GG cells; format: cell-based; conditions: 2 weeks, read-out: Mean IC50 (±S.E.) H-Ras-GG
Protocol: as §1, §2

[5] = test system: NIH 3T3 fibroblasts transfected with H-Ras(61 L) [H-Ras-F]; assay: Soft agar anchorage-independent growth, H-Ras-F cells; format: cell-based; conditions: for IC50: soft agar, 2 weeks, read-out: Mean IC50 (±S.E.) H-Ras-F
Protocol: as §1, §2

H-Ras-F cells = assay: Cell morphology of lovastatin-treated H-Ras-F cells; format: cell-based; conditions: 25 μM lovastatin 24 h, then analog 24 h
Protocol: It has been well established that levels of lovastatin that completely block the mevalonate pathway result in cell cycle blockade, significant cytotoxicity, and a sharp change in cell appearance to a rounded morphology. The effects of lovastatin on the cell morphology of H-Ras-F and H-Ras-GG cells treated with FPP, GGPP, 3-vFPP, 3-vGGPP, 3-alFPP, and 3-alGGPP were photographed and the results are shown on FIG. 9 (H-Ras-F) and 8 (H-Ras-GG), respectively. The H-Ras-F and H-Ras-GG cells were grown in six-well plates to 70-80% confluence. After treating the cells with lovastatin (25 μM) for 24 hour, the indicated FPP or GGPP analogs (re-suspended in media) were added directly to the cell media. Photographs were taken after an additional 24 hour incubation period.

[6] = molecular target: recombinant mFTase (affinity purified rat FPTase) (Rattus norvegicus, UniProt Q02293+Q04631); assay: FTase scintillation proximity assay; format: biochemical; conditions: for IC50: recombinant mFTase, tritiated FPP 0.12 μM, peptide 0.1 μM; for FTase/GGTase: selectivity mFTase against mGGTase I; for Ki: varying concentrations of tritiated FPP, read-out: K1 FTase
Protocol: (§4) The method is described in detail in Yokama, et al., J. Biol. Chem., Vol. 272, No. 7, pages 3944-3952 (February 1997). The FTase, tritiated FPP, and the peptide were incubated at 37° C. for 30 minutes in a buffer. After incubation, a stop reagent and streptavidin beads (Amersham) were added. The radioactive product was counted on a Wallac Microbeta 1450 scintillation counter. The kinetic fits were derived from a nonlinear least squares computer fit of the data. The Ki values were determined using the same assay system with varying concentrations of tritiated FPP.

H-Ras in H-Ras-F cells = assay: Subcellular fractionation / Western blot of Ras in lovastatin-treated H-Ras-F cells; format: cell-based; conditions: for Subcellular location of H-Ras (membrane vs cytosol): H-Ras-F cells, 25 μM lovastatin 24 h, then analog 24 h
Protocol: as §3, with “Following” for “H-Ras-F (A) or H-Ras-GG (B) cells were treated with 25 μM lovastatin for 24 h after which the indicated FPP or GGPP analogs (resuspended in media) were added directly to the cell media. Following”
The results are shown in FIGS. 6 and 7 which are Western blots of the H-Ras-F and H-Ras-GG experiments, respectively. H-Ras-F cells were treated with lovastatin in order to block the mevalonate pathway, prevent the formation of FPP and GGPP, and thus, inhibit protein prenylation.

[7] = molecular target: T1, recombinant yeast FTase (yFTase) (Saccharomyces cerevisiae, UniProt P22007+P29703); conditions: cited from earlier work
T1 sequence (P22007 1-431): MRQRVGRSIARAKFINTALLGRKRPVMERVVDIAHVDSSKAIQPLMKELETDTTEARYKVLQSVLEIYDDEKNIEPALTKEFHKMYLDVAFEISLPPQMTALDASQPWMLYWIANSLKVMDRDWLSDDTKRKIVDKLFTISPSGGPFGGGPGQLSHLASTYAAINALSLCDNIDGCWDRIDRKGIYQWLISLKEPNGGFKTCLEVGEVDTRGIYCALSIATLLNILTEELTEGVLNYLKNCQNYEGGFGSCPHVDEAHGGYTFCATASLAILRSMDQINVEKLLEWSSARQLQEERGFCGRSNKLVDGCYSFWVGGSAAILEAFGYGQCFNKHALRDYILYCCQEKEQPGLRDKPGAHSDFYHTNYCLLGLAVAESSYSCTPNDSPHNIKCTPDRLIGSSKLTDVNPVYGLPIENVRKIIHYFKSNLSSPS
T1 sequence (P29703 1-316): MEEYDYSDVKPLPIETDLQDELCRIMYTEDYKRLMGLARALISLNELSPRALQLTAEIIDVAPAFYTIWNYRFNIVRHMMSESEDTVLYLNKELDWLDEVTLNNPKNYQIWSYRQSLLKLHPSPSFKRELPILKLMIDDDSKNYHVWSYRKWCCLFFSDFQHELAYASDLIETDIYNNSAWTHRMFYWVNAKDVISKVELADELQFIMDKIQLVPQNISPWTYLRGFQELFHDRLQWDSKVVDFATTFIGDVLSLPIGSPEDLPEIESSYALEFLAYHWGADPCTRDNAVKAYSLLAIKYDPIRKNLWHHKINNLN

recombinant mGGTase I = recombinant mGGTase I (Homo sapiens, UniProt P49354+P53609); assay: GGTase I scintillation proximity assay; format: biochemical; conditions: tritiated GGPP
Protocol: as §4
GGTase I values were determined in a similar manner using recombinant mGGTase I, tritiated GGPP, and the peptide Biotin-Aha-Thr-Lys-Cys-Val-Ile-Leu-OH.

With “3-Allyl 7,11-dimethyldodeca-2(Z),6(E),10-trien-1-ol [3-ally Farnesol]” the “Effect on HPAC cells at 100 nM” value ([1]; 100 nM) was “cytostasis”, the “Viable HPAC cell count at 100 nM” value ([1]; 100 nM, seeded 2×10^5/ml, control well 2.2×10^6 cells) was ~2×10^5 /well and the “Effect on HPAC cells at 500 nM” value ([1]; 500 nM, listed as 3-allylfarnesol) was “potently cytotoxic; also recorded: complete cytotoxicity”.
For `C=CC/C(=C\CO)CC/C=C(\C)CC/C=C(\C)CCC=C(C)C` [3-allyl Geranylgeraniol, 3-Allyl-7,11,15-trimethylhexadeca-2(Z),6(E),10(E),14-tetraen-1-ol], the IC50 [2] was greater than 25000 nM, the “Protein geranylgeranylation in cells” value [3] was “inhibits protein geranylgeranylation” and the IC50 [4] was 4600 nM. It also gave an IC50 [5] greater than 25000 nM.
In the case of `CCC(=CCO)CCC=C(C)CCC=C(C)C` [3-ethyl Farnesol], the IC50 [4] is reported as greater than 25000 nM and the IC50 [5] is reported as greater than 25000 nM.
For `CC(C)=CCCC(C)=CCCC(=CCO)c1ccccc1` [3-phenyl Farnesol], the IC50 [4] was greater than 25000 nM and the IC50 [5] was greater than 25000 nM.
In the case of `CC(C)=CCC/C(C)=C/CC/C(=C/CO)C(C)(C)C` [3-tert-butylfarnesol, 3-tert-Butyl-7,11-dimethyldodeca-2(Z),6(E),10-trien-1-ol], the “Cellular activity (transformed cell growth, soft agar), in words” value ([5]; transformed NIH3T3 cell lines) is reported as “inactive in cells”.
With `C=CC/C(=C\COP(=O)(O)OP(=O)(O)O)CC/C=C(\C)CCC=C(C)C` [Compound 3-alFPP, 3-Allyl-7,11-dimethyldodeca-2(Z),6(E),10-triene 1-diphosphate] the “Reversal of rounded morphology of lovastatin-treated H-Ras-F cells” value (H-Ras-F cells) was “not able to reverse the morphology”, the “Mode of inhibition of mFTase versus FPP” value [6] was “competitive inhibitors” and the IC50 [6] was 189 nM. The FTase/GGTase [6] was greater than 530, the Ki [6] was 31 nM and the “Subcellular location of H-Ras (membrane vs cytosol)” value (H-Ras in H-Ras-F cells) was “virtually all of the H-Ras being found in the cytosol”.
`CC/C(=C\COP(=O)(O)OP(=O)(O)O)CC/C=C(\C)CCC=C(C)C` [Compound 3-etFPP] gave an IC50 [6] of 215 nM and an FTase/GGTase [6] greater than 460.
`CC(C)=CCC/C(C)=C/CC/C(=C/COP(=O)(O)OP(=O)(O)O)c1ccccc1` [Compound 3-phFPP] gave an IC50 [6] of 299 nM and an FTase/GGTase [6] greater than 340.
For `CC(C)=CCC/C(C)=C/CC/C(=C/COP(=O)(O)OP(=O)(O)O)C(C)(C)C` [Compound 3-tbFPP, 3-tert-butyl-2(Z),6(E),10-triene diphosphate], the “Inhibition of yFTase” value [7] is given as “potent competitive inhibitor”, the “Substrate activity for yFTase” value [7] is given as “exceptionally poor substrate” and the IC50 (recombinant mGGTase I) is given as roughly 50000 nM. For the same compound, the “Mode of inhibition of mFTase versus FPP” value [6] was “competitive inhibitors”, the IC50 [6] was 31 nM and the FTase/GGTase [6] was “˜1600”. The Ki [6] was 8 nM.
For `C=C/C(=C\COP(=O)(O)OP(=O)(O)O)CC/C=C(\C)CCC=C(C)C` [Compound 3-vFPP, 3-Vinyl-7,11-dimethyldodeca-2(Z),6(E),10-triene 1-Diphosphate], the “Substrate activity for yFTase” value [7] is listed as “poor alternative substrate”, the IC50 (recombinant mGGTase I) is listed as roughly 100000 nM and the “Reversal of rounded morphology of lovastatin-treated H-Ras-F cells” value (H-Ras-F cells) is listed as “modest ability to do so”. For the same compound, the “Mode of inhibition of mFTase versus FPP” value [6] was “competitive inhibitors”, the IC50 [6] was 173 nM and the FTase/GGTase [6] was “˜600”. For the same compound, the Ki [6] was 96 nM, the “Blocking of prenylation of Ras proteins in H-Ras-F cells” value (H-Ras in H-Ras-F cells) was “neither 3-vinylfarnesol nor 3-vFPP blocked the prenylation of Ras proteins” and the “Subcellular location of H-Ras (membrane vs cytosol)” value (H-Ras in H-Ras-F cells) was “virtually complete localization of the H-Ras protein in the membrane fraction (M)”.
With `CC(C)=CCC/C(C)=C/CC/C(C)=C/CC/C(C)=C/COP(=O)(O)OP(=O)(O)O` [GGPP, geranylgeranyl diphosphate, reference compound] the “Reversal of rounded morphology of lovastatin-treated H-Ras-F cells” value (H-Ras-F cells) was “can be reversed”.
With `CC(C)=CCC/C(C)=C/CC/C(C)=C/CC/C(C)=C/CO` [geranylgeraniol, reference compound] the “Reversal of rounded morphology of lovastatin-treated H-Ras-F cells” value (H-Ras-F cells) was “can be reversed”.
With `CC[C@H](C)C(=O)O[C@H]1C[C@@H](C)C=C2C=C[C@H](C)[C@H](CC[C@@H]3C[C@@H](O)CC(=O)O3)[C@H]21` [lovastatin, reference compound] the “Subcellular location of H-Ras (membrane vs cytosol)” value (H-Ras in H-Ras-F cells) was “shift of the majority of H-Ras from the membrane fraction (M) to the cytosol (C)”.
